The results in this text go back to ChEMBL document CHEMBL1201862, “PubChem BioAssay data set” (2004).

Some test systems named below: HCT-15; HOP-92; LOX IMVI; M14; Malme-3M; OVCAR-3; OVCAR-8; SF-295; SN12C; SNB-19; U-251; UACC-62; UO-31; EKVX; HT-29; SF-268.
Holding throughout (assay): NCI anticancer screen, dose series, 48 h

The structures appear in SMILES notation.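 Each compound was tested at five concentrations against cells in 96-well plates for 48 hours. GI50: concentration for 50% inhibition of growth.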 The source made the active and inactive calls. Rule as the data show it: active = GI50 up to about 1.1 µM and inactive = higher. A value given as a limit tells only on which side of the number the result lay.

As to `O=C1Sc2ccccc2C(=O)N2CCSC12` (centres undefined), the GI50 in the assay on HCT-15 was over 100 µM; with HOP-92, > 100 µM (inactive); in the assay on LOX IMVI, > 100 µM (inactive); in the assay on M14, > 100 µM (inactive); in the assay with Malme-3M it was > 100 µM (inactive); in the assay with OVCAR-3, > 100 µM (inactive). In addition, the GI50 in the assay on OVCAR-8, with SF-295, in the assay with SN12C, with SNB-19, in the assay on U-251 and with UACC-62 was > 100 µM (inactive) throughout. In addition, the GI50 in the assay with UO-31 is > 100 µM (inactive).
`COC(=O)C(CC(=O)c1cc2c(cc1I)OCO2)Cc1cc(OC)c(OC)c(OC)c1I` (centres undefined): the GI50 with EKVX was > 100 µM (inactive); in the assay with HCT-15 it was over 100 µM; in the assay on HOP-92, 14.3 µM (inactive); in the assay with HT-29 it was > 100 µM (inactive); with LOX IMVI, > 100 µM (inactive); in the assay with Malme-3M it was > 100 µM (inactive). Besides, the GI50 in the assay on OVCAR-3 was 7.21 µM (inactive); in the assay on OVCAR-8, > 100 µM (inactive); in the assay with SF-268, > 100 µM (inactive); in the assay on SF-295, 16.8 µM (inactive); in the assay on SN12C, > 100 µM (inactive); in the assay on SNB-19 it was > 100 µM (inactive). The GI50 with U-251 was 65.6 µM (inactive); in the assay on UACC-62 it was 37.2 µM (inactive).
For `COC(=O)CC(=O)OSc1ccccc1`, the GI50 is 17.6 µM (inactive) in the assay on EKVX; 17.7 µM (inactive) in the assay on HOP-92; 12.6 µM (inactive) in the assay on LOX IMVI; 17.6 µM (inactive) with M14; 42.4 µM (inactive) with Malme-3M; 14.6 µM (inactive) in the assay on OVCAR-3. The GI50 was 27.5 µM (inactive) in the assay on SF-295; 12.9 µM (inactive) in the assay on SN12C; 41.7 µM (inactive) in the assay on SNB-19; 3.48 µM (inactive) in the assay on U-251; 14.9 µM (inactive) in the assay with UACC-62; 12.2 µM (inactive) with UO-31.
Take `CCCCCCCCOCC(O)COC(=O)CCCCCCC` (centres undefined): the GI50 was over 100 µM with HCT-15; 25.2 µM (inactive) with HOP-92; > 100 µM (inactive) in the assay with HT-29; > 100 µM (inactive) with LOX IMVI; > 100 µM (inactive) in the assay with M14; > 100 µM (inactive) in the assay on Malme-3M. Further, the GI50 is 18.3 µM (inactive) with OVCAR-3; > 100 µM (inactive) with OVCAR-8; 95.5 µM (inactive) in the assay on SF-268; > 100 µM (inactive) with SF-295; > 100 µM (inactive) in the assay with SN12C; > 100 µM (inactive) in the assay with SNB-19. Besides, the GI50 with U-251 is > 100 µM (inactive); in the assay on UACC-62, 50.8 µM (inactive); in the assay with UO-31, > 100 µM (inactive).
As for `CCOc1ccccc1NC(=O)CCc1nnc(S)[nH]1`, the GI50 in the assay on EKVX was > 100 µM (inactive); with HCT-15, over 100 µM; in the assay on HOP-92, > 100 µM (inactive); with HT-29 it was > 100 µM (inactive); in the assay on LOX IMVI it was > 100 µM (inactive); with M14, > 100 µM (inactive). Moreover, the GI50 in the assay with Malme-3M, with OVCAR-3, with OVCAR-8, in the assay with SF-268, in the assay on SF-295 and in the assay on SN12C was > 100 µM (inactive) each time. In addition, the GI50 in the assay on SNB-19, with U-251, in the assay with UACC-62 and in the assay with UO-31 was > 100 µM (inactive) in each case.
As for `CCOC(=O)[N-]c1ccc(S(=O)(=O)[O+](C)CCl)cc1.CCOC(=O)[N-]c1ccc(S(=O)(=O)[O+](C)CCl)cc1.NC(=O)N=O.NC(=O)OCCCl`, the GI50 was over 100 µM in the assay on HCT-15; > 100 µM (inactive) in the assay on HOP-92; > 100 µM (inactive) with HT-29; > 100 µM (inactive) in the assay with LOX IMVI; > 100 µM (inactive) with M14; > 100 µM (inactive) in the assay on Malme-3M. Besides, the GI50 in the assay on OVCAR-8, in the assay on SF-268, with SF-295, with SN12C, in the assay on SNB-19 and in the assay on U-251 was > 100 µM (inactive) in each case. Besides, the GI50 in the assay with UACC-62 and with UO-31 was > 100 µM (inactive) throughout.
